Reference: US11173184B2 (priority 2016, dated 2021)
Where two headings read alike, the source gives them in different places.

Legend:
male Ross 308 broilers = assay type: in vivo, broiler chickens; conditions: 1-42 d
Vencobb 400 broilers = assay type: in vivo, broiler chickens
[1] = test system: male Ross 308 broilers with induced Necrotic Enteritis challenge (E. maxima, Clostridium perfringens); assay type: in vivo, broiler chickens
[2] = test system: male Ross 308 broilers with induced Necrotic Enteritis challenge; design: species or system broiler chickens; conditions: in vivo
Clostridium perfringens = assay type: in vivo
Bacillus spp. = test: Molecular enumeration (quantitative PCR) in digesta; assay type: in vivo
[3] = 1-35 days, necrotic enteritis challenge

Zinc Bacitracin [ZnB]
BW, average bird body weight (male Ross 308 broilers): 2988.0 g | FCR, feed conversion ratio adjusted for mortalities (male Ross 308 broilers): 1.78 g/g | Mortality (male Ross 308 broilers): 1.67%

Bacitracin Methylene Disalicyclate [BMD]
BW, average bird body weight (Vencobb 400 broilers; 1-21 d): 649.4 g | FCR, feed conversion ratio (feed to gain) (Vencobb 400 broilers; 1-21 d): 1.45 g/g | BW, average bird body weight (Vencobb 400 broilers; 1-42 d): 2321.4 g | FCR, feed conversion ratio (feed to gain) (Vencobb 400 broilers; 1-42 d): 1.74 g/g

CC[C@@H](C(=O)O)[C@@H]1O[C@@H]([C@@H](C)[C@H](O)[C@H](C)C(=O)[C@H](CC)[C@H]2O[C@]3(C=C[C@@H](O)[C@]4(CC[C@@](C)([C@H]5CC[C@](O)(CC)[C@H](C)O5)O4)O3)[C@H](C)C[C@@H]2C)[C@@H](C)C[C@@H]1C [Narasin]
BW, average bird body weight [1, 3]: 2778.4 g | FCR, feed conversion ratio (feed to gain) [1, 3]: 1.431 g/g | aFCR, feed conversion ratio adjusted for mortalities [1, 3]: 1.425 g/g | Mortality as a percentage of the pen population ([1]; day 11-35, necrotic enteritis challenge): 1.3% | Footpad Lesion Score (0-4) [2]: 0.41 | C. perfringens (Clostridium perfringens; Day 11 Cecum): 6.38 Log^10 of gene copies/g | C. perfringens (Clostridium perfringens; Day 11 Ileum): 4.18 Log^10 of gene copies/g | C. perfringens (Clostridium perfringens; Day 18 Cecum): 4.87 Log^10 of gene copies/g | C. perfringens (Clostridium perfringens; Day 18 Ileum): 4.60 Log^10 of gene copies/g | C. perfringens (Clostridium perfringens; Day 35 Cecum): 4.81 Log^10 of gene copies/g | C. perfringens (Clostridium perfringens; Day 35 Ileum): 4.03 Log^10 of gene copies/g | Bacillus spp. (Bacillus spp.; Day 11 Cecum): 5.24 Log^10 of gene copies/g | Bacillus spp. (Bacillus spp.; Day 11 Ileum): 5.68 Log^10 of gene copies/g | Bacillus spp. (Bacillus spp.; Day 18 Cecum): 4.54 Log^10 of gene copies/g | Bacillus spp. (Bacillus spp.; Day 18 Ileum): 4.94 Log^10 of gene copies/g | Bacillus spp. (Bacillus spp.; Day 35 Cecum): 5.23 Log^10 of gene copies/g | Bacillus spp. (Bacillus spp.; Day 35 Ileum): 4.84 Log^10 of gene copies/g
